The text below walks through data of US20230331815A1 (priority 2020, published 2023).

Test [1] relates to SARS-CoV-2. The following applies: cited from earlier work.
Test [2] deals with HSPG receptor. Description: hLF cell membrane localization, confocal microscopy of VeroE6/T cells. The format is cell-based, African green monkey. As to conditions: co-incubation of hLF and heparin. As for the experimental part: To visualize cell membrane localization of human lactoferrin (hLF), VeroE6/T cells (0.75×10^5 cells/well) were chilled at 4° C. for 1 hr, incubated with 2.5 µM of hLF. Cells were washed, fixed using 4% PFA (Invitrogen), stained with anti-hLF antibody, and fluorescent image was taken under confocal microscope (FIG. 10, middle row). Cell nuclei were visualized using DAPI (FIG. 10, bottom row). To visualize the cell surface and nuclei at the same time, the confocal images above (i.e., FIG. 10, middle and bottom rows) were merged and are presented in FIG. 10, top row. […] To see the effect of heparin on the binding of hLF to the cell surface (specifically the HSPG receptor), cells were co-incubated with hLF and heparin (H), and the confocal image was taken (FIG. 10, right column).

For orientation: IC50 means the midpoint of a concentration-inhibition curve. As to Ivermectin, in test [1], the 50% inhibitory concentration (IC50) was 2.2 to 2.8 µM. Regarding heparin [reference compound], the “effect on binding of hLF to the cell surface HSPG receptor” value in test [2] was “inhibited”.
